Experimental findings from the supplement of paper PMC5412046 are described below.

Structures can show the parent of a compound that is named as a salt.

The assay relates to SB.msgc-1. Put plainly: AC50 for growth inhibition (viability) (log10 M); higher = less potent. The following applies: SB.msgc-1 (sporadic gastric cancer). In outline: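 Hereditary or sporadic patient-derived gastric cancer cells (500 cells in 5 μL medium per 1536 well) received 23 nL compound in DMSO by pintool. Dosing was 11 threefold dilutions starting at a final 46 μM. After 48 h, CellTiter-Glo was added for 30 min at room temperature and luminescence read on a ViewLux. Log half-maximal activity concentration came from a four-parameter fit of DMSO-normalised viability, keeping only high-quality curve classes.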
With `CC[C@H]1/C=C\C=C/C[C@@H](C)[C@H](O)[C@@](C)(O)C(=O)[C@@H](C)[C@H](O)[C@@H](C)C(=O)[C@@H](C)[C@H](O)[C@@H](C)/C=C/C(=O)O[C@@H]2[C@H](C)[C@H](CC1)O[C@]1(CC[C@H](C)[C@H](C[C@@H](C)O)O1)[C@H]2C` [Oligomycin A], the “AC50 for growth inhibition (log10 M)” value was -8.83.

Regarding `CN(CC#C)C/C1=C/C2=CC=CC=C2OC3=CC=CC=C13` [Omigapil], the “AC50 for growth inhibition (log10 M)” value is -4.63. In the case of `CCCCCCCCCCCC(CC1OC(=O)C1CCCCCC)OC(=O)C(CC(C)C)NC=O` (centres undefined) [Orlistat] it was -4.78; in that of `COC(=O)Nc1nc2ccc([S+]([O-])c3ccccc3)cc2[nH]1` (centres undefined) [Oxfendazole], -4.63; in that of `CCCOc1ccc2[nH]c(NC(=O)OC)nc2c1` [Oxibendazole], -7.83. As for `O=[N+]([O-])c1cn2c(n1)OC[C@@H](OCc1ccc(OC(F)(F)F)cc1)C2` [PA-824], the “AC50 for growth inhibition (log10 M)” value was -5.33. Take `COc1ccc(-c2c(-c3ccc(O)cc3O)n[nH]c2C)cc1` [PDHK RIKEN]: the “AC50 for growth inhibition (log10 M)” value was -4.37. For the molecule `FC1=CC=C(CN2\C=C/C=C(/C(=O)N[C@@H](COC3=CC4=C(NC(=O)N4)C=C3)C5=CC=CC=C5)C2=O)C=C1F` [PDK1 inhibitor], the “AC50 for growth inhibition (log10 M)” value is -4.68. Regarding `O=C(Nc1cccnc1)N1CCC(Cc2cccc(Oc3ccc(C(F)(F)F)cn3)c2)CC1` [PF-3845], the “AC50 for growth inhibition (log10 M)” value is -4.78. As for `CC(=O)Nc1nc(C)c(-c2ccc(Cl)c([S+](=O)([O-])NCCO)c2)s1` [PIK-93], the figure is -5.83. On to `CCC[S+](=O)([O-])Nc1ccc(F)c(C(=O)c2c[nH]c3ncc(Cl)cc23)c1F` [PLX-4720], for which the “AC50 for growth inhibition (log10 M)” value was -4.83. `O=C(Nc1cc(Cl)cc2c1[nH]c1cnccc12)c1cccnc1` [PS-1145]: the “AC50 for growth inhibition (log10 M)” value is -4.73.

Take `O=C(O)c1cccc(-c2noc(-c3ccccc3F)n2)c1` [PTC-124]: the “AC50 for growth inhibition (log10 M)” value is -4.83. As for `CC(=O)O[C@H]1C[C@@H]2CC[C@@H]3[C@H](CC[C@@]4(C)[C@H]3C[C@H]([N+]3(C)CCCCC3)[C@@H]4OC(C)=O)[C@@]2(C)C[C@@H]1[N+]1(C)CCCCC1` [Pancuronium bromide], the figure is -5.53; as for `CCCCc1ccc2[nH]c(NC(=O)OC)nc2c1` [Parbendazole], -6.83; as for `Cc1ccc(Nc2nccc(N(C)c3ccc4c(C)n(C)nc4c3)n2)cc1[S+](N)(=O)[O-]` [Pazopanib], -4.78.

As to `CSCC[C@H](NC(=O)[C@H](Cc1c[nH]c2ccccc12)NC(=O)CCNC(=O)OC(C)(C)C)C(=O)N[C@@H](CC(=O)O)C(=O)N[C@@H](Cc1ccccc1)C(N)=O` [Pentagastrin], the “AC50 for growth inhibition (log10 M)” value was -5.28. In the case of `N=C(N)c1ccc(OCCCCCOc2ccc(C(=N)N)cc2)cc1` [Pentamidine isethionate] it was -4.83. In the case of `OC[C@H]1O[C@H](C[C@@H]1O)[N]2C=NC3=C2\N=C/NC[C@H]3O` [Pentostatin] it was -4.68. As for `N=C(N)NC(=N)NCCc1ccccc1` [Phenformin hydrochloride], the figure is -5.88; as for `COc1cc([C@@H]2c3cc4c(cc3[C@H](O)[C@H]3COC(=O)[C@H]23)OCO4)cc(OC)c1OC` [Picropodophyllin], -8.43; as for `O=C([O-])C[C@H](O)C[C@H](O)/C=C/c1c(C2CC2)nc2ccccc2c1-c1ccc(F)cc1` [Pitavastatin calcium], -5.03. Turning to `CC[C@@H]([C@H](C)O)n1ncn(-c2ccc(N3CCN(c4ccc(OCC5CO[C@@](Cn6cncn6)(c6ccc(F)cc6F)C5)cc4)CC3)cc2)c1=O` (some centres undefined) [Posaconazole], the “AC50 for growth inhibition (log10 M)” value is -4.73. In the case of `CC(=O)Oc1cc2c(s1)CCN(C(C(=O)C1CC1)c1ccccc1F)C2.Cl` (centres undefined) [Prasugrel] it was -6.08. Consider `CC(=O)[C@H]1CC[C@H]2[C@@H]3C/C=C4/C[C@@H](O)CC[C@]4(C)[C@H]3CC[C@]12C` [Pregnenolone], for which the “AC50 for growth inhibition (log10 M)” value is -4.88. Regarding `CC(C)(Sc1cc(C(C)(C)C)c(O)c(C(C)(C)C)c1)Sc1cc(C(C)(C)C)c(O)c(C(C)(C)C)c1` [Probucol], the “AC50 for growth inhibition (log10 M)” value was -5.58. As for `CC(=O)[C@H]1CC[C@H]2[C@@H]3CCC4=CC(=O)CC[C@]4(C)[C@H]3CC[C@]12C` [Progesterone], the figure is -4.78. As to `C[C@@H]1O[C@@H](O[C@H]\2CC[C@]\3(C)[C@@H]4CC[C@]5(C)[C@@H](CC[C@@]5(O)[C@H]4CCC3=C2)C/6=C/OC(=O)/C=C6)[C@H](O)[C@H](O)[C@@H]1O` [Proscillaridin], the “AC50 for growth inhibition (log10 M)” value is -7.68.

For `CCCCC[C@H](O)/C=C/[C@H]1[C@H](O)CC(=O)[C@@H]1C/C=C\CCCC(=O)O` [Prostaglandin E2], the “AC50 for growth inhibition (log10 M)” value was -5.18. For `COCCCN1CCC(NC(=O)c2cc(Cl)c(N)c3c2OCC3)CC1` [Prucalopride], the “AC50 for growth inhibition (log10 M)” value is -4.58.

Take `CC(C)[C@H](CO)Nc1nc(Nc2cccc(Cl)c2)c2ncn(C(C)C)c2n1` [Purvalanol A]: the “AC50 for growth inhibition (log10 M)” value is -4.68. On to `COc1cc(Nc2ncc(F)c(Nc3ccc4c(n3)NC(=O)C(C)(C)O4)n2)cc(OC)c1OC` [R406], for which the “AC50 for growth inhibition (log10 M)” value is -4.63. As for `OCc1ccc(-c2ccc(-c3ccc(CO)s3)o2)s1` [RITA], the figure is -4.93; as for `CCOC(=O)Nc1ccc(NCc2ccc(F)cc2)cc1N` [Retigabine], -4.83.

For `CO[C@H]1/C=C/O[C@@]2(C)Oc3c(C)c(O)c4c(c3C2=O)C2=NC3(CCN(CC(C)C)CC3)NC2=C(NC(=O)/C(C)=C\C=C\[C@H](C)[C@H](O)[C@@H](C)[C@@H](O)[C@@H](C)[C@H](OC(C)=O)[C@@H]1C)C4=O` [Rifabutin], the “AC50 for growth inhibition (log10 M)” value was -4.63. As for `Nc1nc2ccc(OC(F)(F)F)cc2s1` [Riluzole], the figure is -4.73.

With `O=C(C[C@@H]1C/C=C\CCC(=O)O[C@H](c2ccccc2)CNC1=O)NCc1ccc(Cl)cc1` [Robotnikinin], the “AC50 for growth inhibition (log10 M)” value was -5.43.

For `[O-]C(=O)C1=C(C(=C(Cl)C(=C1Cl)Cl)Cl)C/2=C/3\C=C(I)/C(=O)/C(=C3OC4=C2C=C(I)C(=C4I)[O-])I` [Rose Bengal disodium], the “AC50 for growth inhibition (log10 M)” value was -4.93.

`CN(CCOc1ccc(CC2SC(=O)NC2=O)cc1)c1ccccn1` (centres undefined) [Rosiglitazone]: the “AC50 for growth inhibition (log10 M)” value is -5.18. In the case of `O=C1N\2CCC3=C([NH]C4=C3C=CC=C4)C2=N/C5=CC=CC=C15` [Rutaecarpine] it was -4.78; in that of `N#CC[C@H](C1CCCC1)n1cc(-c2ncnc3[nH]ccc23)cn1` [Ruxolitinib], -4.73. In the case of `CC(C)(C)c1cc(C(=O)O)c(NC(=O)Nc2ccc3[nH]ncc3c2)s1` [S6K-18] it was -4.88. Consider `Fc1ccc(Cl)cc1-c1nc(Nc2ccncc2)c2nccnc2n1` [SD-208], for which the “AC50 for growth inhibition (log10 M)” value is -4.93. As for `O=C1NC(=O)/C(=C/c2cccc(C(F)(F)F)c2)S1` [SMI-4a], the figure is -4.83. As to `CC(C)(C)c1cnc(CSc2cnc(NC(=O)C3CCNCC3)s2)o1` [SNS-032], the “AC50 for growth inhibition (log10 M)” value is -7.18.

For `Cc1c(C)n(Cc2ccc(-c3ccccc3C(=O)O)cc2)c2ccc(C(=O)N[C@@H](C)c3ccc([N+](=O)[O-])cc3)cc12` [SR1664], the “AC50 for growth inhibition (log10 M)” value was -4.68.

Consider `CCCCCNC(=O)N1CCC(CN(Cc2ccc(Cl)cc2)Cc2ccc([N+](=O)[O-])s2)C1` (centres undefined) [SR9011], for which the “AC50 for growth inhibition (log10 M)” value is -4.73. In the case of `CNC(=O)CN1CCC(Oc2cc3c(Nc4cccc(Cl)c4F)ncnc3cc2OC)CC1` [Sapitinib] it was -7.98; in that of `N#C[C@@H]1C[C@@H]2C[C@@H]2N1C(=O)[C@@H](N)C12CC3CC(CC(O)(C3)C1)C2` [Saxagliptin], -4.98; in that of `CC[C@H](CO)Nc1nc(NCc2ccccc2)c2ncn(C(C)C)c2n1` [Seliciclib], -4.68. As for `c1cc2c(cc1[C@H]1OC[C@H]3[C@@H]1CO[C@@H]3c1ccc3c(c1)OCO3)OCO2` [Sesamin], the figure is -5.33. With `CC(C)CC(N(C)C)C1(c2ccc(Cl)cc2)CCC1` (centres undefined) [Sibutramine hydrochloride], the “AC50 for growth inhibition (log10 M)” value was -4.73. As to `O=C(O)c1ccc2c(c1)nc(Nc1cccc(Cl)c1)c1ccncc12` [Silmitasertib], the “AC50 for growth inhibition (log10 M)” value is -4.93. As for `COc1cc([C@H]2Oc3cc([C@H]4Oc5cc(O)cc(O)c5C(=O)[C@@H]4O)ccc3O[C@@H]2CO)ccc1O` [Silybin], the “AC50 for growth inhibition (log10 M)” value was -4.78. `CCC(C)(C)C(=O)O[C@H]1C[C@@H](C)\C=C2\C=C/[C@H](C)[C@H](CC[C@@H]3C[C@@H](O)CC(=O)O3)[C@@H]12` [Simvastatin]: the “AC50 for growth inhibition (log10 M)” value was -4.78. Take `Cc1onc(-c2ccccc2Cl)c1C(=O)N[C@@H]1C(=O)N2[C@@H]1SC(C)(C)[C@@H]2C(=O)[O-]` [Sodium cloxacillin]: the “AC50 for growth inhibition (log10 M)” value is -5.48.

For `O=C1\C=C/C[C@@H]2[C@H]3CCCN4CCC[C@@H](CN12)[C@@H]34` [Sophocarpine], the “AC50 for growth inhibition (log10 M)” value was -4.78. In the case of `Fc1ccc(CNc2ncnc3ccc(F)cc23)cc1` [Spautin-1] it was -5.48; in that of `Cc1cn([C@H]2C=C[C@@H](CO)O2)c(=O)[nH]c1=O` [Stavudine], -4.37.
